# Results from patent US7786145B2, “Cyanoguanidine-based azole compounds useful as malonyl-CoA decarboxylase inhibitors” (Chugai Seiyaku Kabushiki Kaisha, priority 2003, dated 2010).
# Tests used:
# [1] = target: T1, hMCD (malonyl-CoA decarboxylase) (Homo sapiens, UniProt O95822); experiment: In Vitro MCD Inhibitory Assay; assay type: biochemical
# T1 sequence (O95822 40-493): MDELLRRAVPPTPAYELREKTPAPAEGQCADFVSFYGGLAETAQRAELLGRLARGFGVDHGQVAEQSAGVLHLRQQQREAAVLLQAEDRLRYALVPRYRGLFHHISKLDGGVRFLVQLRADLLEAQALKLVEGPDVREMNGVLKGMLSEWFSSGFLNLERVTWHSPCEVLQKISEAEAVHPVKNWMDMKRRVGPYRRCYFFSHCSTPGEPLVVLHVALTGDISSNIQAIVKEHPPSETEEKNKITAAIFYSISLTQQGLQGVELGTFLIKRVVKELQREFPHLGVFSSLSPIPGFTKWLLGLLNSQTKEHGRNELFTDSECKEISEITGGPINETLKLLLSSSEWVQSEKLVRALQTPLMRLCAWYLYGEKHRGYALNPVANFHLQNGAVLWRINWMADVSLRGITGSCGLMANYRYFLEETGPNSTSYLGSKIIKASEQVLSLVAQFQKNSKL
# Experimental: In Vitro MCD Inhibitory Assay:
# The conversion of […] was assayed using a modified protocol as previously described by Kim, Y. S. and Kolattukudy, P. E. in 1978 (Arch. Biochem. Biophys 190:585 (1978)). As shown in eq. 1-3, the establishment of the kinetic equilibrium between malate/NAD and oxaloacetate/NADH was catalyzed by malic dehydrogenase (eq. 2). […] The accumulation of NADH can be continuously followed by monitoring the increase of fluorescence emission at 460 nm on a fluorescence plate reader. The fluorescence plate reader was calibrated using the authentic acetyl-CoA from Sigma. For a typical 96-well plate assay, the increase in the fluorescence emission (λex=360 nm, λem=460 nm, for NADH) in each well was used to calculate the initial velocity of hMCD. Each 50 μL assay contained 10 mM phosphate buffered saline (Sigma), pH 7.4, 0.05% Tween-20, 25 mM K2HPO4—KH2PO4 (Sigma), 2 mM Malate (Sigma), 2 mM NAD (Boehringer Mannheim), 0.786 units of MD (Roche Chemicals), 0.028 unit of CS (Roche Chemicals), 5-10 nM hMCD, and varying amounts of MCA substrate. Assays were initiated by the addition of MCA, and the rates were corrected for the background rate determined in the absence of hMCD.
# [2] = tested on: Isolated Working Rat Hearts; experiment: Glucose oxidation in isolated working rat hearts; set-up: unit not given here; details: DMSO control
# Experimental: Isolated Working Rat Heart Assay Protocol
# Isolated working hearts from male Sprague-Dawley rats (300-350 g) are subjected to a 60-minute aerobic perfusion period. The working hearts are perfused with 95% O2, 5% CO2 with a modified Krebs-Henseleit solution containing 5 mM glucose; 100 μU/mL insulin; 3% fatty acid-free BSA; 2.5 mM free Ca^2+, and 0.4 to 1.2 mmol/L palmitate (Kantor et al., Circulation Research 86:580-588(2000)). The test compound is added 5 minutes before the perfusion period. DMSO (0.05%) is used as control.
# Measurement of Glucose Oxidation Rates
# Samples were taken at 10-minute intervals for measurements of experimental parameters. Glucose oxidation rates are determined by the quantitative collection of ^14CO2 produced by hearts perfused with buffer containing [U14]-Glucose (R. Barr and G. Lopaschuk, in “Measurement of cardiovascular function”, McNeill, J. H. ed., Chapter 2, CRC press, New York (1997)). After the perfusion, the ^14CO2 from the perfusae is subsequently released by injecting 1 mL of perfusate into sealed test tube containing 1 mL of 9N H2SO4. The tube was sealed with a rubber stopper attached to a scintillation vial containing a piece of filter papers saturated with 300 μl of hyamine hydroxide. The scintillation vials with filter papers were then removed and Ecolite Scintillation Fluid added. Samples were counted by standard procedures as described above. Average rates of glucose oxidation for each phase of perfusion are expressed as μmol/min/g dry wt as described above.
# Rates of fatty acid oxidation are determined using the same method as described above for glucose oxidation rate measurement using [^14C]palmitate or by the quantitative collection of ^3H2O produced by hearts perfused with buffer containing [5-^3H]palmitate (R. Barr and G. Lopaschuk, in “Measurement of cardiovascular function”, McNeill, J. H. ed., Chapter 2, CRC press, New York (1997)). ^3H2O was separated from [5-^3H]palmitate by treating 0.5 mL buffer samples with 1.88 mL of a mixture of chloroform/methanol (1:2 v:v) and then adding 0.625 mL of chloroform and 0.625 mL of a 2 M KCl/HCl solution. The sample is centrifuged for 10 min and aqueous phase was removed and treated with a mixture of 1 mL of chloroform, 1 mL of methanol and 0.9 mL KCl/HCl with a ration of 1:1:0.9. The aqueous layer was then counted for total ^3H2O determination. […] Average rates of fatty acid oxidation for each phase of perfusion are expressed as nmol/min/g dry wt after taking consideration the dilution factor. Active compounds are characterized by an increase in glucose oxidation and/or decrease in fatty acid oxidation as compared to the control experiments (DMSO). The compounds that caused statistically significant increases in glucose oxidation and/or decrease in fatty acid oxidation are considered to be active. Statistical significance was calculated using the Student's t test for paired or unpaired samples, as appropriate. The results with P<0.05 are considered to be statistically significant.
# breast carcinoma cells = details: cited from earlier work
# CPT-I muscle isoform = details: muscle isoform of CPT-I; read-out: IC50 of malonyl-CoA inhibition; cited from earlier work
# CPT-I liver isoform = details: liver isoform of CPT-I; read-out: IC50 of malonyl-CoA inhibition; cited from earlier work
Compound,"Ki ([1]; Table 1, MCD inhibition)",other results
COc1ccc(NC(=NC#N)Nc2ccc3nc(S)sc3c2)cc1 [CBM-000302018],133 nM,
CCCN(/C(=N/C#N)Nc1ccccc1)c1ccc2nc(S)sc2c1 [CBM-000302043],7.2 nM,
"N#C/N=C(\Nc1ccc(OC(F)(F)F)cc1)Nc1ccc2nc(S)sc2c1 [CBM-000302047, N-cyano-N′-(2-mercapto-benzothiazol-6-yl)-N″-(4-trifluoromethoxy-phenyl)guanidine]",242 nM,
CCCCOc1ccc(NC(=NC#N)Nc2ccc3nc(S)sc3c2)cc1 [CBM-000302048],35.1 nM,
CCOc1ccc(NC(=NC#N)Nc2ccc3nc(S)sc3c2)cc1 [CBM-000302049],448 nM,
CCCN(C(=NC#N)Nc1ccc(OC)cc1)c1ccc2nc(S)sc2c1 [CBM-000302050],15.2 nM,
CCCN(C(=NC#N)Nc1ccc(OC(F)(F)F)cc1)c1ccc2nc(S)sc2c1 [CBM-000302052],67.1 nM,"Ki ([1]; Table 2, MCD inhibition): 67.1 nM; GOX [2]: 131"
CC(C)CN(C(=NC#N)Nc1ccc(OC(F)(F)F)cc1)c1ccc2nc(S)sc2c1 [CBM-000302065],22.5 nM,
CC(C)CN(C(=NC#N)Nc1ccc(C(F)(F)F)cc1)c1ccc2nc(S)sc2c1 [CBM-000302076],82.4 nM,
CCCCN(/C(=N/C#N)Nc1cccnc1)c1ccc2nc(S)sc2c1 [CBM-000302113],110 nM,
CCCCN(C(=NC#N)Nc1cccc(C(F)(F)F)c1)c1ccc2nc(S)sc2c1 [CBM-000302114],210 nM,
CC(C)CN(C(=NC#N)Nc1cccc(C(F)(F)F)c1)c1ccc2nc(S)sc2c1 [CBM-000302115],320 nM,
CCN(C(=NC#N)Nc1ccc(C(=O)NCC(C)C)cc1)c1ccc2nc(S)sc2c1 [CBM-000302243],24.2 nM,
CCN(C(=NC#N)NCc1ccc(C(F)(F)F)cc1)c1ccc2nc(S)sc2c1 [CBM-000302290],82.4 nM,
CCN(C(=NC#N)NCc1ccc(OC(F)(F)F)cc1)c1ccc2nc(S)sc2c1 [CBM-000302291],49.5 nM,
"CCCCCCCCCCCCCCOc1ccc(C(=O)O)o1 [TOFA, 5-(tetradecyloxy)-2-furoic acid]",,malonyl-CoA level (breast carcinoma cells): 60 % of the control
CC(C)(COP(=O)(O)OP(=O)(O)OC[C@H]1O[C@@H](n2cnc3c(N)ncnc32)[C@H](O)[C@@H]1OP(=O)(O)O)[C@@H](O)C(=O)NCCC(=O)NCCSC(=O)CC(=O)O [malonyl-CoA],,IC50 (CPT-I muscle isoform): 30 nM; IC50 (CPT-I liver isoform): 2500 nM

# Further lines, with some results ahead:
"Ki ([1]; Table 1, MCD inhibition)",Compound,other results
5.6 nM,CCCN(/C(=N/C#N)Nc1ccccc1)c1ccc2nc(S)sc2c1 [CBM-000302051],
7.1 nM,COc1ccc(NC(=NC#N)N(CC(C)C)c2ccc3nc(S)sc3c2)cc1 [CBM-000302064],
4.7 nM,COC(=O)c1ccc(NC(=NC#N)N(CC(C)C)c2ccc3nc(S)sc3c2)cc1 [CBM-000302073],
3.5 nM,CCCN(C(=NC#N)Nc1ccc(C(F)(F)F)cc1)c1ccc2nc(S)sc2c1 [CBM-000302075],"Ki ([1]; Table 2, MCD inhibition): 3.5 nM; GOX [2]: 230"
0.3 nM,CC(C)CN(C(=NC#N)Nc1ccc(C(=O)O)cc1)c1ccc2nc(S)sc2c1 [CBM-000302088],
1.7 nM,"CCN(/C(=N/C#N)Nc1ccc(C(F)(F)F)cc1)c1ccc2nc(S)sc2c1 [CBM-000302107, N-cyano-N′-ethyl-N′-(2-mercapto-benzothiazol-6-yl)-N″-(4-trifluoromethyl-phenyl)guanidine]","Ki ([1]; Table 2, MCD inhibition): 1.7 nM; GOX [2]: 290"
1.5 nM,CCCN(C(=NC#N)Nc1ccc(C(=O)O)cc1)c1ccc2nc(S)sc2c1 [CBM-000302112],
2 nM,CN(C(=NC#N)Nc1ccc(C(F)(F)F)cc1)c1ccc2nc(S)sc2c1 [CBM-000302167],"Ki ([1]; Table 2, MCD inhibition): 2 nM; GOX [2]: 239"
2.8 nM,CCN(C(=NC#N)Nc1ccc(C(N)=O)cc1)c1ccc2nc(S)sc2c1 [CBM-000302189],"Ki ([1]; Table 2, MCD inhibition): 2.8 nM; GOX [2]: 96"
5.6 nM,CCCCNC(=O)c1ccc(NC(=NC#N)N(CC)c2ccc3nc(S)sc3c2)cc1 [CBM-000302244],"Ki ([1]; Table 2, MCD inhibition): 5.6 nM; GOX [2]: 152"
5.9 nM,"CC(C)N(/C(=N/C#N)Oc1ccccc1)c1ccc2nc(S)sc2c1 [CBM-000302339, 3-Cyano-1-isopropyl-1-(2-mercapto-benzothiazol-6-yl)-2-phenyl-isourea]",
